In the supplement of paper PMC10307832 one finds relative viability data, which are given here for one cell line.

Holding throughout (test): relative viability (nuclei count vs DMSO), 5 days (fraction); higher = more cells survive
Compound in the assay “Obatoclax + Bortezomib”: COC1=CC(c2cc3ccccc3[nH]2)=N/C1=C\c1[nH]c(C)cc1C [Obatoclax] + CC(C)C[C@H](NC(=O)[C@H](Cc1ccccc1)NC(=O)c1cnccn1)B(O)O [Bortezomib] (partner 0.002 µM)
The method, boiled down: (§1)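 Each reported value is a median over duplicate plates. It expresses relative viability: treated-well nuclei count divided by vehicle-well nuclei count. Lung cancer cell lines in 1536-well plates were dosed by pin tool a day after seeding, alone with one drug or with a fixed anchor-drug dose plus five library-drug doses (not always all listed) in √10 steps, and nuclei were counted after 5 days.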

Compound in the assay “Bortezomib + Dasatinib”: CC(C)C[C@H](NC(=O)[C@H](Cc1ccccc1)NC(=O)c1cnccn1)B(O)O [Bortezomib] + Cc1nc(Nc2ncc(C(=O)Nc3c(C)cccc3Cl)s2)cc(N2CCN(CCO)CC2)n1 [Dasatinib] (partner 0.075 µM)
A digest of the protocol: as §1

Compound in the assay “Bortezomib + Crizotinib”: CC(C)C[C@H](NC(=O)[C@H](Cc1ccccc1)NC(=O)c1cnccn1)B(O)O [Bortezomib] + C[C@@H](Oc1cc(-c2cnn(C3CCNCC3)c2)cnc1N)c1c(Cl)ccc(F)c1Cl [Crizotinib] (partner 1 µM)
The method, boiled down:
as §1

Compound in the assay “Obatoclax + Linsitinib”: COC1=CC(c2cc3ccccc3[nH]2)=N/C1=C\c1[nH]c(C)cc1C [Obatoclax] + C[C@]1(O)C[C@@H](c2nc(-c3ccc4ccc(-c5ccccc5)nc4c3)c3c(N)nccn32)C1 [Linsitinib] (partner 1 µM)
A digest of the protocol: as §1

Regarding NCI-H650, the relative viability came to 0.795 with Obatoclax + Bortezomib (first compound 0.01 µM); 0.732 with Obatoclax + Bortezomib (first compound 0.03162 µM); 0.455 with Obatoclax + Bortezomib (first compound 0.1 µM); 0.504 in the assay with Obatoclax + Bortezomib (first compound 0.3162 µM); 0.337 with Obatoclax + Bortezomib (first compound 1 µM); 0.503 with Bortezomib + Dasatinib (first compound 0.000632 µM). Moreover, the relative viability with Bortezomib + Dasatinib (first compound 0.002 µM) was 0.428; in the assay with Bortezomib + Dasatinib (first compound 0.006325 µM), 0.268; in the assay with Bortezomib + Dasatinib (first compound 0.02 µM), 0.16; in the assay with Bortezomib + Crizotinib (first compound 0.000632 µM), 0.753; in the assay with Bortezomib + Crizotinib (first compound 0.002 µM), 0.584; in the assay with Bortezomib + Crizotinib (first compound 0.006325 µM), 0.25. The relative viability with Bortezomib + Crizotinib (first compound 0.02 µM) came out at 0.177; in the assay with Obatoclax + Linsitinib (first compound 0.01 µM), 0.874; with Obatoclax + Linsitinib (first compound 0.03162 µM) it was 0.757; with Obatoclax + Linsitinib (first compound 0.1 µM), 0.329; with Obatoclax + Linsitinib (first compound 0.3162 µM) it was 0.528; with Obatoclax + Linsitinib (first compound 1 µM) it was 0.425.
